# Test results as given in US20230272012A1, “PEPTIDES AND METHODS OF USE” (REALTA LIFE SCIENCES, INC., priority 2020, published 2023).
# Entries after “also recorded” stand apart in the source; their conditions may differ. Bridge positions count the residues as written; N and C are the ends. Square brackets hold non-standard residues; d marks the D form. Ends that are not written are not given here. Peptide text beside a SMILES is read from it. R8 = C=CCCCCCC[C@@](C)(N)C(=O)O; S5 = C=CCCC[C@](C)(N)C(=O)O; Sar = CNCC(=O)O
# Tests used:
# [1] = Total Antioxidant Capacity (TAC) assay; conditions: highest peptide concentration 1.5 mM
# Description: As previously reported, the TAC (Total Antioxidant Capacity) Assay (Cell Biolabs, Inc, San Diego, Calif.) was used to measure the antioxidant capacity of the PIC1 variants based on the reduction of copper (II) to copper (I). The kit protocol was performed per the manufacturer's recommendations.
# The antioxidant properties for the PIC1 variants were evaluated in a Total Antioxidant Capacity (TAC) assay, as previously reported. Total antioxidant activity over a range of peptide concentrations were determined for the stapled and the D-amino acid peptides based on the PA-I8Sar and PA-C9Sar backbones (FIG. 8A-8D), with the activity of the highest peptide concentration reported (1.5 mM) (FIGS. 4A and B, respectively). […] For the D-amino acid variants, there was variation in the amount of antioxidant activity with the peptides having similar, slightly lower and slightly higher levels of total antioxidant capacity. In contrast, stapled peptides (PA-0135 through -0140) as well as combination of stapled and D-amino acid peptides had reduced total antioxidant capacity (FIG. 4A).
# MPO = biological target: T1, MPO (Homo sapiens, UniProt P05164); test: MPO activity assay (TMB oxidation); format: biochemical; conditions: half-maximal values from dose-response curves
# T1 construct: purchased Lee BioSolutions (Maryland Heights, Mo.)
# T1 sequence (P05164 49-745): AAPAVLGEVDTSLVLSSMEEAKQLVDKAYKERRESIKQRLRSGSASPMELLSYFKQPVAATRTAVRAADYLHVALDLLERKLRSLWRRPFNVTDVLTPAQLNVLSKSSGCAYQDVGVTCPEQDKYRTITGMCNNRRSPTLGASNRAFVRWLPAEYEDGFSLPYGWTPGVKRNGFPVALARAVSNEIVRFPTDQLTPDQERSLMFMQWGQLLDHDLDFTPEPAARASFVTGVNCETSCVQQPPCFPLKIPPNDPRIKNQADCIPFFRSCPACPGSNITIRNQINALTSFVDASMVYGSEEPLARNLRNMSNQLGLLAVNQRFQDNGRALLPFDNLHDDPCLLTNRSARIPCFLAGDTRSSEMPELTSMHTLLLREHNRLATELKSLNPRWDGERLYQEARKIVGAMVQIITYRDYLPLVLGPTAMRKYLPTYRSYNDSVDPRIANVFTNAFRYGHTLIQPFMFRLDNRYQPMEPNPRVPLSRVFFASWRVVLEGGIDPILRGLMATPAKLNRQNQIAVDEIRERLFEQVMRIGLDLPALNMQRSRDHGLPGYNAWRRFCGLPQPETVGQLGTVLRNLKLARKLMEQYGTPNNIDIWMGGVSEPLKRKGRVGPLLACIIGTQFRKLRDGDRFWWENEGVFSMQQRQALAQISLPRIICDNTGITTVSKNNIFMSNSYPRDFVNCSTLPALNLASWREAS
# Description: The MPO activity assay was performed as previously described. Briefly, peptides were diluted to 12 mg/ml and serially titrated in a 96 well plate at a volume of 0.02 ml. MPO was diluted to 20 μg/ml and 0.02 ml was added to the titrated peptides. TMB (3,30,5,50-tetramethylbenzidine) (0.1 ml) was added to each well for 2 minutes, followed by 0.1 ml of 2.5 N H2SO4 for another 2 minutes, and then read on a 96 well plate reader (BioTek) at 450 nm.
# The inventors also assessed the ability of RLS-0127* and RLS-0133* to inhibit MPO activity as determined by inhibition of oxidation of TMB in a plate-based assay. […] Additionally, the inventors assessed the ability of RLS-0127* and RLS-0133* to bind C1q in a plate-based assay in which C1q is coated on the plate and increasing amounts of the peptides are added, followed by primary antibody to the peptides and secondary antibody conjugated to HRP. The plate was then incubated with TMB to give a […] signal that is detected at a wavelength of 450 nm in a plate reader.
# [2] = ABO incompatibility hemolytic assay of complement activity (CH50-type); format: cell-based, human; conditions: human; peptide 0.8 mg/ml (~0.5 mM); read-out: decrease of ABO hemolysis compared to PA-C9Sar
# Description: (§1) FIG. 1A-1B show PIC1 peptides' inhibition of complement activation in an ABO incompatibility assay. […] Inhibition of ABO incompatibility hemolysis in a CH50-type assay. Peptides are at a final concentration of 0.5 mM. Values are represented as a percent of the positive control, which consists of human O sera and AB red blood cells in GVBS^++ buffer. Data are the means of n=3 independent experiments±SEM.
# (§2) For hemolytic complement assays, human red blood cells (RBCs) from type AB donors were purified, washed, and standardized to 1.0×10^9 cells/ml, as previously described. Human sera from type O donors at a 15% final concentration was combined with 0.5 mM of the peptides and the volume was brought up to 0.2 ml with GVBS^++ and 5.0×10^7 RBCs. The samples were incubated for 1 hour at 37° C. and then spun at 3,000 rpm for 5 minutes and the supernatant was collected and read at 412 nm. Values are represented as a percent of the positive control, which consists of human O sera and AB red blood cells in GVBS^++ buffer.
# (§3) To assess the extent to which the peptide variants inhibit antibody-initiated complement activation, an ABO incompatibility ex vivo assay was utilized in which purified erythrocytes from a ‘type AB+’ donor are incubated with sera from a ‘type O’ subject containing anti-A and anti-B antibodies. Peptides were tested at a concentration of 0.8 mg/ml (˜0.5 mM). […] D-amino acid variants PA-0127 and PA-0133 decreased ABO hemolysis by 20% (P value=0.083) and 25% (P value=0.076), respectively. […]
# [3] = test system: antibody-initiated complement activation (human O sera and AB red blood cells); test: as above; format: cell-based; conditions: peptide 0.8 mg/ml (~0.5 mM)
# Description: as §1, §2, §3
# PD-1/PD-L1 interaction = biological target: T2, PD-1/PD-L1 interaction (Homo sapiens, UniProt Q15116+Q9NZQ7); test: PD-1/PD-L1 Blockade Bioassay (Promega); format: cell-based; conditions: increasing peptide concentrations
# T2 construct: host or cells: PD-1 effector cells; PD-L1 aAPC/CHO-K1 cells
# T2 sequence (Q15116 25-288): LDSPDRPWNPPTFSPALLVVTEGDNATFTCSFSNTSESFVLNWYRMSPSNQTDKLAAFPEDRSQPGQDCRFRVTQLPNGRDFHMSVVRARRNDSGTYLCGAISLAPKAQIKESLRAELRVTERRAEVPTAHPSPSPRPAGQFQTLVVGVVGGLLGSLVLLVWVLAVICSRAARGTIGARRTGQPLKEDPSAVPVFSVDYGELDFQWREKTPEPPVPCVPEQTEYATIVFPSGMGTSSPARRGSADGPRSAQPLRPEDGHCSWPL
# T2 sequence (Q9NZQ7 19-290): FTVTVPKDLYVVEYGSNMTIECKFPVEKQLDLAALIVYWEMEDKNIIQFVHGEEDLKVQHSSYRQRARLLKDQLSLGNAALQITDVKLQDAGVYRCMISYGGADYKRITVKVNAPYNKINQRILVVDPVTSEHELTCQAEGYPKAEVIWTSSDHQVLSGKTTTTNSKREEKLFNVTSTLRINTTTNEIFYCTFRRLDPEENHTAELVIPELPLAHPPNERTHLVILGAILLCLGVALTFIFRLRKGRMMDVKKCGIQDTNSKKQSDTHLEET
# Description: PD-1 effector cells were incubated with PD1-L1 aAPC cells in the absence or presence of increasing concentrations of anti-PD-1 antibody (positive control) and select PIC1 peptides. Luminescence was detected in luminometer plate reader.
# To assess if PIC1 peptides could block PD-1 inhibitory activity in a cell-based assay, select peptides were screened in the PD-1/PD-L1 Blockade Bioassay (Promega). The PD-1/PD-L1 Blockade Bioassay is a biologically relevant MOA-based assay that can be used to measure the potency and stability of antibodies and other biologics designed to block the PD-1/PD-L1 interaction. This bioluminescent cell-based assay is used to measure the potency and stability of molecules targeting PD-1 and consists of two genetically engineered cell lines: aAPC/CHO-K1 Cells are CHO-K1 cells with an engineered cell surface protein designed to activate cognate TCRs in an antigen-independent manner. When the two cell types are co-cultured, the PD-1/PD-L1 interaction inhibits TCR signaling and NFAT-mediated luciferase activity. Addition of an inhibitory molecule that blocks either PD-1 or PD-L1 releases the inhibitory signal and results in TCR signaling and NFAT-mediated luciferase activity.
# [4] = test system: purified human Pan T-cells; test: T-cell exhaustion protocol (Dynabeads re-stimulation); format: cell-based; conditions: peptides 2 mg/ml at each stimulation; supernatant ELISA
# Description: Purified human pan-T-cells were subject to stimulation with Dynabeads every 48 hours over the period of 8 days with cells also receiving PIC1 peptides (2 mg/ml) at each stimulation. Cells not receiving Dynabeads were run in parallel to assess background levels of Caspase 3/7 signal. At the eighth day, cells were harvested and the levels of Caspase 3/7 determined by ELISA.
# Purified human pan-T-cells were subject to stimulation with Dynabeads every 48 hours over the period of 8 days with cells also receiving PIC1 peptides (2 mg/ml) at each stimulation. Cell supernatants were collected at each stimulation and levels of IL-2 and IFN-gamma assayed by ELISA.
# T-cell exhaustion is a form of T-cell dysfunction that occurs in cancer. It is defined by poor effector function, reduction in cytokine release (e.g., IL-2, TNF-alpha, IFN-gamma), sustained expression of inhibitory receptors (e.g., PD-1, LAG-3, CD244, CD160) with the progressive loss of effector function due to overstimulation. Exhaustion prevents optimal control of tumor growth. Exhausted T cells are prevalent in the tumor microenvironment (TME) and can lead to T-cell apoptosis. T-cell exhaustion is reversible, and pharmaceutical inhibition of T-cell exhaustion has been considered a promising strategy by many cancer researchers. To ascertain if PIC1 peptides could reverse T-cell exhaustion and increase T cell viability and effector function, a T-cell exhaustion protocol was developed. To induce T-cell exhaustion, purified human Pan T-cells were stimulated with T-Activator CD3/CD28 Dynabeads and cells are washed and re-stimulated every 48 hours. PIC1 peptides were added to the cells after each stimulation with Dynabeads. After three to four stimulations cells were harvested for readouts which consisted of assessing T-cell apoptosis by measuring Caspase 3/7 levels and production of cytokines IL-2 and IFN-gamma which is indicative of T-cell functionality. […] To further evaluate if PIC1 peptides could restore T-cell functionality in cells that have undergone the exhaustion protocol, the inventors next assessed production of cytokines IL-2 and IFN-gamma. Supernatants from the cells after each stimulation were collected and the cytokines measured by ELISA. […] The lower level of IFN-gamma signal compared to IL-2 was consistently seen in this assay.
compound,measurement,setting,value
"CC[C@H](C)[C@H](N)C(=O)N[C@@H](C)C(=O)N[C@@H](CC(C)C)C(=O)N[C@H](C(=O)N[C@@H](CC(C)C)C(=O)N[C@@H](CCC(=O)O)C(=O)N1CCC[C@H]1C(=O)N(C)CC(=O)N[C@@H](CS)C(=O)N[C@@H](CS)C(=O)N[C@@]1(C)CCCC=CCCC[C@@](C)(C(=O)O)NC(=O)[C@H](C)NC(=O)[C@H](CCCNC(=N)N)NC(=O)[C@H](CCC(=O)O)NC1=O)[C@@H](C)CC [PA-0116, IALILEP(Sar)CCS5ERAS5] (H-IALILEP[Sar]CC[S5]ERA[S5]-OH; staple 11-15)",total antioxidant capacity compared with PA-I8Sar,[1],increased activity; also recorded: superior antioxidant activity
CC[C@H](C)[C@H](N)C(=O)N[C@@H](C)C(=O)N[C@@H](CC(C)C)C(=O)N[C@H](C(=O)N[C@@H](CC(C)C)C(=O)N[C@@H](CCC(=O)O)C(=O)N1CCC[C@H]1C(=O)N[C@H](C(=O)N(C)CC(=O)N[C@@H](CS)C(=O)N[C@@]1(C)CCCC=CCCC[C@@](C)(C(=O)O)NC(=O)[C@H](C)NC(=O)[C@H](CCCNC(=N)N)NC(=O)[C@H](CCC(=O)O)NC1=O)[C@@H](C)CC)[C@@H](C)CC [PA-0155] (H-IALILEPI[Sar]C[S5]ERA[S5]-OH; staple 11-15),MPO inhibition compared with PA-C9Sar,MPO,decreased MPO inhibition
same,decrease in ABO hemolysis compared to reference peptide at 1 h,[2],64%
same,inhibition of complement in the hemolytic assay compared to PA-C9Sar,[3],significant increase in complement inhibitory activity
same,inhibition of PD-1/PD-L1 inhibitory signaling (luminescence),PD-1/PD-L1 interaction,did not show PD-1/PD-L1 inhibitory activity
"IALILEPdI(Sar)CQERAA (IALILEPIXCQERAA; D-isoleucine, sarcosine; MOD_RES (8)..(8) D-amino acid; MOD_RES (9)..(9) Sarcosine) [PA-0163]",MPO inhibition compared with PA-C9Sar,MPO,decreased MPO inhibition
"IALILEdPI(Sar)CQERAA (IALILEPIXCQERAA; D-proline, sarcosine; MOD_RES (7)..(7) D-amino acid; MOD_RES (9)..(9) Sarcosine) [PA-0162]",IL-2 signal at stimulation 2,[4],showed an IL-2 signal at stimulation 2
same,inhibition of complement in the hemolytic assay compared to PA-C9Sar,[3],slightly less well
same,inhibition of PD-1/PD-L1 inhibitory signaling (luminescence),PD-1/PD-L1 interaction,did not show PD-1/PD-L1 inhibitory activity
IALILR8P(Sar)CCQES5AA (IALIL[R8]P[Sar]CCQE[S5]AA; bridges not given here; also: R8/S5 6-13 may or may not be stapled) [PA-0114],total antioxidant capacity compared with PA-I8Sar,[1],reduction in total antioxidant capacity
IALIR8EPI(Sar)CQS5RAA (IALI[R8]EPI[Sar]CQ[S5]RAA; staple 5-12) [PA-0148],MPO inhibition compared with PA-C9Sar,MPO,decreased MPO inhibition
IALIS5EP(Sar)S5CQERAA (IALI[S5]EP[Sar][S5]CQERAA; bridges not given here; also: S5 5-9 may or may not be stapled) [PA-0140],MPO inhibition compared with PA-I8Sar,MPO,reduced inhibition of MPO activity
same,inhibition of ABO incompatible hemolysis compared to PA-I8Sar,[3],lesser extent
IALR8LEPI(Sar)CS5ERAA (IAL[R8]LEPI[Sar]C[S5]ERAA; bridges not given here; also: R8/S5 4-11 may or may not be stapled) [PA-0147],total antioxidant capacity compared with PA-C9Sar,[1],maintained similar activity
IAS5ILES5I(Sar)CQERAA (IA[S5]ILE[S5]I[Sar]CQERAA; staple 3-7) [PA-0153],MPO inhibition compared with PA-C9Sar,MPO,decreased MPO inhibition
S5ALIS5EPI(Sar)CQERAA ([S5]ALI[S5]EPI[Sar]CQERAA; staple 1-5) [PA-0151],MPO inhibition compared with PA-C9Sar,MPO,decreased MPO inhibition
